Results on five compounds are retold here after ChEMBL document CHEMBL4627352, “New acrylamide-sulfisoxazole conjugates as dihydropteroate synthase inhibitors” (Bioorg Med Chem, 2020).

In series [1] the test system is Streptococcus pneumoniae. As to the kind of experiment: Inhibition of DHPS in Streptococcus pneumoniae assessed as antibacterial activity by measuring inhibition zone at 5 mg/mL incubated for 24 hrs by disk diffusion method. A general note: Agar diffusion results depend on both activity and mobility in agar.
Series [2] concerns Bacillus subtilis. As to the kind of experiment: Inhibition of DHPS in Bacillus subtilis assessed as antibacterial activity by measuring inhibition zone at 5 mg/mL incubated for 24 hrs by disk diffusion method.
Series [3] relates to Staphylococcus epidermidis. As to the kind of experiment: Inhibition of DHPS in Staphylococcus epidermidis assessed as antibacterial activity by measuring inhibition zone at 5 mg/mL incubated for 24 hrs by disk diffusion method.
Series [4] deals with Escherichia coli. Description: Inhibition of DHPS in Escherichia coli assessed as antibacterial activity by measuring inhibition zone at 5 mg/mL incubated for 24 hrs by disk diffusion method.
The test system of series [5] is Proteus vulgaris. As to the kind of experiment: Inhibition of DHPS in Proteus vulgaris assessed as antibacterial activity by measuring inhibition zone at 5 mg/mL incubated for 24 hrs by disk diffusion method.
Series [6] has as its system Klebsiella pneumoniae. As to the kind of experiment: Inhibition of DHPS in Klebsiella pneumoniae assessed as antibacterial activity by measuring inhibition zone at 5 mg/mL incubated for 24 hrs by disk diffusion method.
Series [7] deals with Streptococcus pneumoniae. As to the kind of experiment: Inhibition of DHPS in Streptococcus pneumoniae assessed as antibacterial activity by measuring inhibition of bacterial growth incubated for 24 hrs by microbroth dilution method. (In general: Dilution methods test growth across graded concentrations, often in twofold steps.)
The test system of series [8] is Bacillus subtilis. Description: Inhibition of DHPS in Bacillus subtilis assessed as antibacterial activity by measuring inhibition of bacterial growth incubated for 24 hrs by microbroth dilution method.
Series [9] concerns Staphylococcus epidermidis. As to the kind of experiment: Inhibition of DHPS in Staphylococcus epidermidis assessed as antibacterial activity by measuring inhibition of bacterial growth incubated for 24 hrs by microbroth dilution method.
In series [10] the test system is Escherichia coli. Description: Inhibition of DHPS in Escherichia coli assessed as antibacterial activity by measuring inhibition of bacterial growth incubated for 24 hrs by microbroth dilution method.
Series [11] deals with Proteus vulgaris. As to the kind of experiment: Inhibition of DHPS in Proteus vulgaris assessed as antibacterial activity by measuring inhibition of bacterial growth incubated for 24 hrs by microbroth dilution method.
The subject of series [12] is Klebsiella pneumoniae. Description: Inhibition of DHPS in Klebsiella pneumoniae assessed as antibacterial activity by measuring inhibition of bacterial growth incubated for 24 hrs by microbroth dilution method.
Series [13] relates to Aspergillus fumigatus. Description: Inhibition of DHPS in Aspergillus fumigatus assessed as antifungal activity by measuring inhibition zone at 5 mg/mL incubated for 48 hrs by disk diffusion method.
In series [14] the test system is Syncephalastrum racemosum. As to the kind of experiment: Inhibition of DHPS in Syncephalastrum racemosum assessed as antifungal activity by measuring inhibition zone at 5 mg/mL incubated for 48 hrs by disk diffusion method.
For series [15], the system named is Geotrichum candidum. As to the kind of experiment: Inhibition of DHPS in Geotrichum candidum assessed as antifungal activity by measuring inhibition zone at 5 mg/mL incubated for 48 hrs by disk diffusion method.
Series [16] concerns Aspergillus fumigatus. As to the kind of experiment: Inhibition of DHPS in Aspergillus fumigatus assessed as antifungal activity by measuring inhibition of fungal growth incubated for 48 hrs by microbroth dilution method.
Series [17] has as its system Syncephalastrum racemosum. Description: Inhibition of DHPS in Syncephalastrum racemosum assessed as antifungal activity by measuring inhibition of fungal growth incubated for 48 hrs by microbroth dilution method.
Series [18] has as its system Geotrichum candidum. As to the kind of experiment: Inhibition of DHPS in Geotrichum candidum assessed as antifungal activity by measuring inhibition of fungal growth incubated for 48 hrs by microbroth dilution method.
For series [19], the system named is hTERT-BJ. As to the kind of experiment: Cytotoxicity against human hTERT-BJ1 cells at 50 uM by acid phosphatase assay relative to control. Type of series: cell-based.
The subject of series [20] is Escherichia coli ATCC 25922. As to the kind of experiment: Inhibition of DHPS in Escherichia coli ATCC 25922 assessed as inhibition of bacterial growth incubated for 24 hrs in presence of folate precursor, pABA by microbroth dilution method.
Series [21] concerns Escherichia coli ATCC 25922. As to the kind of experiment: Inhibition of DHPS in Escherichia coli ATCC 25922 assessed as inhibition of bacterial growth incubated for 24 hrs in presence of folate dependent metabolite, methionine by microbroth dilution method.
Series [22] deals with Syncephalastrum racemosum. As to the kind of experiment: Potency index, ratio of amphotericin B MIC to compound MIC for Syncephalastrum racemosum assessed as inhibition of DHPS-mediated fungal growth incubated for 48 hrs by microbroth dilution method.
In series [23] the test system is Aspergillus fumigatus. As to the kind of experiment: Potency index, ratio of sulfisoxazole MIC to compound MIC for Aspergillus fumigatus assessed as inhibition of DHPS-mediated fungal growth incubated for 48 hrs by microbroth dilution method.

Converted amounts (≈) assume the structure as drawn. The source made the active and inactive calls. The rule behind the calls is not given here.

Turning to `CCS/C(NC)=C(\C#N)C(=O)Nc1ccc(S(=O)(=O)Nc2onc(C)c2C)cc1`, the inhibition zone (IZ) in [1] was found to be 20.2 mm; in [2], 21.2 mm; in [3], 20.9 mm; in series [4], 18.2 mm; in series [5], 16.4 mm; in series [6], 21.3 mm. In addition, the values for the inhibition zone (IZ) in series [13], in series [14] and in [15] were 17.1 mm, 19.9 mm and 18.3 mm, respectively. Moreover, the MIC was 3.9 µg/mL (≈ 8.95 µM) in [7]; 0.98 µg/mL (≈ 2.25 µM) in [8]; 1.95 µg/mL (≈ 4.48 µM) in series [9]; 7.81 µg/mL (≈ 17.9 µM) in [10]; 31.2 µg/mL (≈ 71.8 µM) in series [11]; 1.95 µg/mL (≈ 4.48 µM) in series [12]. In addition, the figures for the MIC in [16], in series [17] and in series [18] were 15.6 µg/mL (≈ 35.9 µM), 3.9 µg/mL (≈ 8.95 µM) and 7.81 µg/mL (≈ 17.9 µM), respectively. The compound further returned an Activity in series [19] of 2.7%. In addition, the inhibition entry in series [20] and in series [21] was “inactive” in each case. For the same compound, the Ratio in [22] turned out to be 2.

Regarding `CCN/C(S)=C(/C#N)C(=O)Nc1ccc(S(=O)(=O)Nc2onc(C)c2C)cc1`, the inhibition zone (IZ) in series [1] was 13.7 mm; in series [2], 15.4 mm; in series [3], 17.3 mm; in [4] it was 14.3 mm; in series [5] it was 12.6 mm; in series [6], 16.4 mm. In addition, the inhibition zone (IZ) was 12.6 mm in series [13], 13.2 mm in series [14] and 17.1 mm in series [15]. The MIC in series [7] was determined as 62.5 µg/mL (≈ 148 µM); in series [8], 62.5 µg/mL (≈ 148 µM); in series [9], 31.2 µg/mL (≈ 74.1 µM); in [10] it was 62.5 µg/mL (≈ 148 µM); in series [12], 62.5 µg/mL (≈ 148 µM); in [17], 7.81 µg/mL (≈ 18.5 µM). Moreover, the MIC in [18] amounted to 15.6 µg/mL (≈ 37.1 µM). Further, the Activity in series [19] is given as 1.7%. In addition, the inhibition entry in series [20] and in series [21] was “inactive” in each case.

Take GENTAMICIN: the inhibition zone (IZ) in series [4] is 19.9 mm; in [5], 23.4 mm; in [6], 26.3 mm. In addition, the MIC in series [8] stood at 0.24 µg/mL; in [10] it was 1.95 µg/mL; in series [11], 0.24 µg/mL; in [12], 0.03 µg/mL.

For `CCN/C(SC)=C(/C#N)C(=O)Nc1ccc(S(=O)(=O)Nc2onc(C)c2C)cc1`, the Activity in [19] turned out to be 1.1%.

Take `Cc1noc(NS(=O)(=O)c2ccc(NC(=O)/C(C#N)=C(/S)Nc3ccccc3)cc2)c1C`: the “inhibition zone (IZ)” value in series [1], in [2], in series [3], in series [4], in [5] and in series [6] was “inactive” in each case. In addition, the figures for the inhibition zone (IZ) in series [13], in series [14] and in [15] were 16.8 mm, 14.3 mm and 17.1 mm, respectively. Besides, the MIC worked out at 15.6 µg/mL (≈ 33.3 µM) in series [16], 125 µg/mL (≈ 266 µM) in [17] and 31.2 µg/mL (≈ 66.6 µM) in [18]. The inhibition entry in series [20] and in series [21] was “inactive” in each case. In addition, the Ratio in series [23] stood at 2.
